Blank lines part the entries; values can stand above or below the compound they belong to.
Assay: solvent given as SMILES

SMILES: CCCCCCCCCCCCCCCCOc1cc(C#Cc2ccc3ccccc3c2-c2c(C#Cc3cc(OCCCCCCCCCCCCCCCC)c(C#Cc4ccc(C=C(C#N)C#N)cc4)cc3OCCCCCCCCCCCCCCCC)ccc3ccccc23)c(OCCCCCCCCCCCCCCCC)cc1C#Cc1ccc(C=C(C#N)C#N)cc1
absorption maximum (in Brc1ccccc1): 442 nm | absorption maximum (in C1CCCCC1): 444 nm | absorption maximum (in C1CCOC1): 425 nm | absorption maximum (in C1COCCO1): 425 nm | absorption maximum (in CCCCCC): 442 nm | absorption maximum (in CCCCCCCCO): 431 nm | absorption maximum (in CCCCOCCCC): 435 nm | absorption maximum (in CCOC(C)=O): 426 nm | absorption maximum (in CCOCC): 429 nm | absorption maximum (in Cc1ccccc1): 436 nm | absorption maximum (in ClC(Cl)(Cl)Cl): 447 nm | absorption maximum (in ClC(Cl)Cl): 446 nm | absorption maximum (in ClCCl): 436 nm

SMILES: CC1=N/C(=C\c2cccc(N(C)C)c2)C(=O)N1CCO
absorption maximum (in C1CCOC1): 354 nm | absorption maximum (in CC#N): 352 nm | absorption maximum (in CCCCCC): 352 nm

SMILES: CN(C)c1ccc(/C=C/C=C/c2nc3ccccc3o2)cc1
absorption maximum (in C1COCCO1): 411 nm | absorption maximum (in CC#N): 410 nm | absorption maximum (in CC(C)=O): 409 nm | absorption maximum (in CCCCCC): 401 nm | absorption maximum (in CCCCO): 417 nm | absorption maximum (in CCCO): 417 nm | absorption maximum (in CCO): 417 nm | absorption maximum (in CN(C)C=O): 419 nm | absorption maximum (in CO): 417 nm | absorption maximum (in Cc1ccccc1): 413 nm | absorption maximum (in ClC(Cl)(Cl)Cl): 406 nm | absorption maximum (in ClC(Cl)Cl): 414 nm | absorption maximum (in ClCCl): 415 nm | absorption maximum (in OCC(O)CO): 424 nm | absorption maximum (in OCCO): 424 nm | absorption maximum (in c1ccccc1): 411 nm

SMILES: CCCCCCC(CCCCCC)N1C(=O)c2cccc3c(-c4ccc(-c5ccc(OC)cc5)cc4)ccc(c23)C1=O
absorption maximum (in CCCCCC): 354 nm | absorption maximum (in CCCCCCCCCCCCCC): 357.6 nm | absorption maximum (in CCCCCCCCCCCO): 369.4 nm | absorption maximum (in CCCCO): 366 nm | absorption maximum (in CN(C)C=O): 369 nm | absorption maximum (in Cc1ccccc1): 364.8 nm | absorption maximum (in ClC(Cl)Cl): 364.4 nm

SMILES: F[B-]1(F)n2c(c3cccc4cccc2c43)=Nc2cccc(Cl)[n+]21
absorption maximum (in C1CCOC1): 476 nm | absorption maximum (in CC#N): 470 nm | absorption maximum (in CCCCCC): 481 nm | absorption maximum (in Cc1ccccc1): 481 nm | absorption maximum (in ClCCl): 447 nm

SMILES: COC1=[N+]2C(=C(c3ccc(C)cc3)c3ccc(OC)n3[B-]2(F)F)C=C1
absorption maximum (in C1CCCCC1): 513 nm | absorption maximum (in C1CCOC1): 514 nm | absorption maximum (in CC#N): 510 nm | absorption maximum (in CCOC(C)=O): 512 nm | absorption maximum (in CO): 510 nm | absorption maximum (in Cc1ccccc1): 517 nm | absorption maximum (in ClC(Cl)Cl): 516 nm

SMILES: O=C(c1ccccc1)c1cc2ccc1CCc1ccc(cc1-c1ccc(N(c3ccccc3)c3ccccc3)cc1)CC2
absorption maximum (in Cc1ccccc1): 311 nm

SMILES: Cc1cccc(C)c1/C=C/c1nc(N2CCOCC2)c2c([n+]1[O-])CCCC2
absorption maximum (in ClCCl): 384 nm

SMILES: Cc1cc(-c2ccccc2)nc2c1ccc1nc(-c3ccccc3)cn12
absorption maximum (in CC#N): 347 nm | absorption maximum (in CCCCOC(C)=O): 350 nm | absorption maximum (in CCOC(C)=O): 352 nm | absorption maximum (in CO): 345 nm | absorption maximum (in ClC(Cl)Cl): 350 nm | absorption maximum (in ClCCl): 348 nm | absorption maximum (in c1ccccc1): 351 nm

SMILES: CSc1nc(-c2ccc(-n3c4ccccc4c4ccccc43)cc2)cc(-c2ccc(-n3c4ccccc4c4ccccc43)cc2)n1
absorption maximum (in C1CCOC1): 363 nm | absorption maximum (in CN(C)C=O): 364 nm | absorption maximum (in Cc1ccccc1): 364 nm | absorption maximum (in ClC(Cl)Cl): 364 nm

SMILES: COc1cc2c3c(c4cc(OC)c(OC)c(OC)c4c2c(OC)c1OC)=[N+]1C(=C(c2c(C)cc(C)cc2C)c2cc4c5cc(OC)c(OC)c(OC)c5c5c(OC)c(OC)c(OC)cc5c4n2[B-]1(F)F)C=3
absorption maximum (in C1CCCCC1): 733 nm | absorption maximum (in C1CCOC1): 730 nm | absorption maximum (in CC#N): 718 nm | absorption maximum (in Cc1ccccc1): 740 nm | absorption maximum (in ClCCl): 727 nm

SMILES: CCN1CCCc2cc3c(cc21)Oc1cc2c(cc1=N3)C(CS(=O)(=O)[O-])CC(C)(C)[N+]=2CCCC(=O)[O-] (centres undefined)
absorption maximum (in O): 655 nm

SMILES: O=Cc1ccc(/C=C/c2nc(N3CCOCC3)c3c([n+]2[O-])CCCC3)cc1
absorption maximum (in ClCCl): 418 nm

SMILES: NC(=O)CC[C@H](/[NH+]=C\C=C1\C=C(C(=O)O)N[C@H](C(=O)O)C1)C(=O)O
absorption maximum (in CCO): 474 nm | absorption maximum (in CO): 471 nm | absorption maximum (in O): 475 nm | absorption maximum (in OCC(F)(F)F): 473 nm | absorption maximum (in OCCO): 478 nm

SMILES: c1ccc(N2c3ccc4ccccc4c3-c3c4ccccc4cn[n+]3[B-]2(c2ccccc2)c2ccccc2)cc1
absorption maximum (in Cc1ccccc1): 524 nm

SMILES: CCCCOC(=O)c1cc(Oc2ccc(OC)cc2)c2c3c(Cl)cc4c5c(cc(Cl)c(c6c(Oc7ccc(OC)cc7)cc(C(=O)OCCCC)c1c26)c53)C(=O)N(c1c(C(C)C)cccc1C(C)C)C4=O
absorption maximum (in Cc1ccccc1): 531 nm

SMILES: CCN1c2ccc(/C=N/Nc3ccccn3)cc2Sc2cc(-c3ccc(C#N)cc3)ccc21
absorption maximum (in C1CCOC1): 383 nm | absorption maximum (in CS(C)=O): 398 nm | absorption maximum (in Cc1ccccc1): 386 nm | absorption maximum (in ClCCl): 388 nm

SMILES: CN(C)c1ccc(C(=O)Nc2ccccc2)cc1
absorption maximum (in C1CCCCC1): 307 nm | absorption maximum (in C1CCOC1): 311 nm | absorption maximum (in CC#N): 314 nm | absorption maximum (in CCOCC): 307 nm

SMILES: CC1=CC(C)=[N+]2C1=C(c1c3ccccc3c(-c3ccccc3)c3ccccc13)c1c(C)cc(C)n1[B-]2(F)F
absorption maximum (in CC#N): 503 nm | absorption maximum (in CCCCCC): 505 nm | absorption maximum (in CCO): 504 nm | absorption maximum (in CN(C)C=O): 507 nm | absorption maximum (in Cc1ccccc1): 509 nm | absorption maximum (in ClCCl): 507 nm

SMILES: O=C1c2ccccc2C(=O)c2cc(-c3ccc(N(c4ccccc4)c4ccccc4)cc3)ccc21
absorption maximum (in C1CCOC1): 447 nm | absorption maximum (in CCCCCC): 442 nm | absorption maximum (in CCOC(C)=O): 446 nm | absorption maximum (in CCOCC): 443 nm | absorption maximum (in Cc1ccccc1): 454 nm | absorption maximum (in ClC(Cl)(Cl)Cl): 457 nm | absorption maximum (in ClCCl): 459 nm

SMILES: Cc1nc2c(ccc3c2sc(/C=C/c2cc4c5c(c2)CCCN5CCC4)[n+]3C)s1
absorption maximum (in CO): 574 nm | absorption maximum (in ClC(Cl)Cl): 595 nm

Now from value to compound:

absorption maximum (in CCO): 393 nm | absorption maximum (in ClC(Cl)Cl): 394 nm
SMILES: CCOc1ccc2c(-c3nc(-c4ccccc4Cl)no3)cc(=O)oc2c1

absorption maximum (in ClCCl): 390 nm
SMILES: Cc1c(C(=O)c2c(F)cc(F)cc2F)c2ccc3cccc4c5cccc6ccc1c(c65)c2c34

absorption maximum (in CC#N): 385 nm | absorption maximum (in ClCCCl): 395 nm
SMILES: c1ccc(-c2cc3c(oc4ccccc43)c(-c3ccccc3)[o+]2)cc1

absorption maximum (in ClC(Cl)Cl): 411 nm
SMILES: Cc1ccc2nc3c4c(c5ccccc5c3nc2c1)OC(=O)CC4c1ccc(C(F)(F)F)cc1 (centres undefined)

absorption maximum (in ClCCl): 428 nm
SMILES: CCN(CC)c1ccc2cc(C#N)c(=N)oc2c1

absorption maximum (in C1CCOC1): 587 nm
SMILES: CC1=[N+]2C(=C(c3ccc(C(=C(c4ccccc4)c4ccccc4)c4ccccc4)cc3)c3ccc(/C=C/c4ccc(C(=C(c5ccccc5)c5ccccc5)c5ccccc5)cc4)n3[B-]2(F)F)C=C1

absorption maximum (in C1CCOC1): 408 nm | absorption maximum (in CCCCCC): 403 nm | absorption maximum (in ClC(Cl)Cl): 405 nm | absorption maximum (in ClCCl): 419 nm
SMILES: O=C1c2cccc3c(-n4c5ccccc5c5ccccc54)ccc(c23)C(=O)N1c1ccccc1

absorption maximum (in ClC(Cl)Cl): 406 nm
SMILES: c1ccc(-c2nc(-c3ccccn3)[se]c2N(c2ccccc2)c2ccccc2)cc1

absorption maximum (in C1CCCCC1): 300 nm
SMILES: C[SiH](C)c1ccc([SiH](C)C)c2ccccc12

absorption maximum (in ClCCl): 428 nm
SMILES: CCN(CC)c1ccc2cc(C#N)c(=O)oc2c1

absorption maximum (in ClC(Cl)Cl): 333 nm
SMILES: CCCCn1c2ccccc2c2ccc3c4cc(-c5ccc(OC)cc5)ccc4n(CCCC)c3c21

absorption maximum (in CC#N): 452 nm
SMILES: CCN(CC)c1ccc2cc3c(cc2c1)C1(c2ccccc2Oc2ccccc21)c1cc2cc(N(CC)CC)ccc2cc1C3=O

absorption maximum (in ClCCl): 332 nm
SMILES: COc1cc(-c2cnc(-c3ccncc3)o2)cc(OC)c1OC

absorption maximum (in CN(C)C=O): 322 nm
SMILES: Cc1ccc2nc(-c3cccc4nc(C)[nH]c(=O)c34)[nH]c2c1

absorption maximum (in ClCCl): 654 nm
SMILES: Cc1ccc(C#Cc2c3cc4ccccc4cc3c(C#C[Si](C(C)C)(C(C)C)C(C)C)c3cc4ccccc4cc23)cc1

absorption maximum (in ClCCl): 467 nm
SMILES: COc1ccc(/C=C/C2=C3CCc4ccccc4C3=[O+][B-](F)(F)O2)cc1

absorption maximum (in ClC(Cl)Cl): 370 nm
SMILES: CCCCCCN1C(=O)c2cccc3cc(/N=C\c4nc5ccccc5s4)cc(c23)C1=O

absorption maximum (in ClC(Cl)Cl): 522 nm
SMILES: C(#Cc1ccncc1)C(C#Cc1ccncc1)=Cc1ccc(C=C(C#Cc2ccncc2)C#Cc2ccncc2)s1

absorption maximum (in C1CCOC1): 410 nm | absorption maximum (in CC#N): 410 nm | absorption maximum (in CCCCCCC): 402 nm | absorption maximum (in CS(C)=O): 423 nm | absorption maximum (in ClCCl): 414 nm
SMILES: C(=C\c1cnc2ccccc2n1)/c1ccc(N2CCCCC2)cc1

absorption maximum (in CCO): 330 nm
SMILES: CCOC(=O)c1cc(C(=O)OCC)c2cc(C)ccc2n1

absorption maximum (in C1CCOC1): 598 nm | absorption maximum (in CS(C)=O): 604 nm | absorption maximum (in ClCCl): 599 nm
SMILES: COc1cc(OC)cc(C2=C3C(C)=C(I)C(C)=[N+]3[B-](F)(F)n3c(/C=C/c4ccsc4)c(I)c(C)c32)c1

absorption maximum (in ClCCl): 394 nm
SMILES: CC(C)(C)c1ccc(-c2cc(-c3ccc(-c4cc(-c5ccc(C(C)(C)C)cc5)c(C(=O)NCc5cccs5)s4)s3)sc2C(=O)NCc2cccs2)cc1

absorption maximum (in O): 536 nm
SMILES: CCn1c2ccc(S(=O)(=O)O)cc2c(=O)c2cc3c(cc21)c(=O)c1cc(S(=O)(=O)O)ccc1n3CCCCCC(=O)O

absorption maximum (in CC#N): 293 nm | absorption maximum (in CO): 293 nm | absorption maximum (in O): 292 nm
SMILES: CNCCCC1c2ccccc2C=Cc2ccccc21

absorption maximum (in CC#N): 370 nm | absorption maximum (in ClCCCl): 368 nm
SMILES: Cc1ccc2nc3c(=O)[nH]c(=O)[nH]c3nc2c1

absorption maximum (in C1CCCCC1): 350 nm
SMILES: CCCC1(CCC)c2ccccc2-c2ccc(-c3ccc4c(c3)C(CCC)(CCC)c3cc(-c5ccc6c(c5)C(CCC)(CCC)c5ccccc5-6)ccc3-4)cc21

absorption maximum (in ClCCl): 550 nm
SMILES: COc1ccc(-c2c3cc4ccccc4cc3c(-c3ccc(OC)cc3)c3cc4sc(C)cc4cc23)cc1

absorption maximum (in ClCCl): 528 nm
SMILES: CCC1=C(C)C2=C(/C=C/Sc3ccccc3)c3c(C)c(CC)c(C)n3[B-](F)(F)[N+]2=C1C

absorption maximum (in O): 349 nm
SMILES: Cc1ccc(N(CC(=O)[O-])CC(=O)[O-])cc1OCCOc1cc(-c2cc3ccc(C(=O)[O-])cc3[nH]2)ccc1N(CC(=O)[O-])CC(=O)[O-]
